Data on 2 molecules can be found in patent US11413302B2, “Use of carrimycin or active ingredients thereof and use thereof” (SHENYANG FUYANG PHARMACEUTICAL TECHNOLOGY CO., LTD., priority 2018, dated 2022).

The subject of assay [1] is rats induced by Aβ1-42. Put plainly: rat Morris water-maze experiment, Aβ1-42 AD model. It is filed as in vivo, Sprague Dawley rats. Particulars: 30 mg/kg.
Protocol: (§3) The mice were randomly divided into 6 groups, a sham-operation control group, a model group, three groups were fed with 25, 50 and 100 mg/kg of carrimycin, and one group was fed with 30 mg/kg of the positive drug resveratrol.
(§4) Experimental process: Aβ1-42 was dissolved by using a hexafluoroisopropanol/sterile normal-saline solution to obtain the concentration of 2 μg/μL, incubated and aged at 4° C. for 24 h to form a AO oligomer, and reserved. […] 2.5 μL, (0.5 μL/min) was injected within 5 min into each side of the hippocampus, and the needle was retained for 5 min, to result in a rat dementia model.
On the next day after the model was established, the sham-operation control group and the model group were administered intragastrically by using the corresponding solvents, the other experimental groups were administered intragastrically by using 25, 50 and 100 mg/kg of carrimycin and 30 mg/kg of the positive drug resveratrol. On the 12th day after Aβ1-42 was injected into the hippocampus, the experiments of Y maze, new-object distinguishing and water maze were carried out in sequence. Continue to administer during the behavioral experiment 1 time per day till the behavioristics end.
The rat water-maze experiment: on the 16-20th day after the administration, the Morris water-maze experiment was performed on the groups of rats. The Morris water-maze experiment aims at investigating the influence by Carrimycin on the space studying memory disorder. The water-maze apparatus is composed of a black stainless-steel circular water pool with the diameter of 1.5 meters and the height of 50 centimeters and a circular metal platform with the diameter of 10 centimeters, and the platform can freely move. Before the experiment, the water pool was filled with water (water temperature 24±1° C.) to cause the water level to be above the platform by 1 centimeter. In the training phase, training is performed 1 time in the morning and afternoon per day for 6 days. […]
Assay [2] has as its system rats induced by Aβ1-42. In words: rat new-object-distinguishing experiment, Aβ1-42 AD model. Further details: species or system Sprague Dawley rats. The settings on record: in vivo.
Protocol: as §3, §4
On the next day after the model was established, the sham-operation control group and the model group were administered intragastrically by using the corresponding solvents, the other experimental groups were administered intragastrically by using 25, 50 and 100 mg/kg of carrimycin and 30 mg/kg of the positive drug resveratrol. […]
The rat new-object-distinguishing experiment: on the 14-15th day after the administration, the new-object-distinguishing experiment was performed on the groups of rats. […] The test was performed on the third day, in which each time one rat was placed into the open field to firstly freely explore for 3min, and was then taken out, 2 same objects (A1, A2) were placed into the center of the open field, the rat was placed into the open field, and the durations (tA1, tA2) during which the rat exploreed the two objects within 5 min were recorded. After 1 h, the object A2 was replaced with a new object B, the rat was placed into the open field again, and the durations (tA1, tB) during which the rat explored the two objects were recorded. After 24 h, the object B was replaced with an object C, the rat was placed into the open field again, and the durations (tA1, tC) during which the rat explored the two objects were recorded. […] The preferential index and the discrimination index to the new objects are calculated. […]
The test system of assay [3] is rats induced by Aβ1-42. In words: rat Y-maze experiment, Aβ1-42 AD model. It is filed as in vivo, Sprague Dawley rats. Particulars: 30 mg/kg.
Protocol: The rat Y-maze experiment: on the 12th day after the administration, the Y-maze experiment was performed on the groups of rats. […] In the experiment, the rats were placed into the tip of the arm A, and were permitted to freely enter and leave the three arms. The total time quantity of entering the arms and the order of entering the arms within 8 min of each of the rats were recorded. By using the continuous entering into the three different arms as one correct alternate reaction, the time quantity of the correct alternate reactions was recorded. The spontaneous alternate reaction rate is used to reflect the capacity of space working memory.
The subject of assay [4] is diabetes mouse. Put plainly: fasting insulin (ELISA) and insulin resistance of alloxan diabetes mice. Type of assay: in vivo, Kunming mice. The settings on record: 200 mg/kg; 45 days; fasting blood sugar*fasting insulin/22.5. The protocol: (§1) The study on the effect of Carrimycin on reducing blood sugar comprises Kunming mice was selected, single intraperitoneal injection with 160 mg/kg of alloxan was subjected to Kunming mice to form model mice. The mice whose values of blood sugar are stable at the modeling level (10˜25mmol/L) were selected, divided randomly into a model control group, a positive control group (200 mg/kg of metformin) and an administration group (with Carrimycin as the drug, 25, 50 and 100 mg/kg). Simultaneously a normal control group was provided, and was given gastric normal saline.
After the model was made and gavage was given for 45 days, the mice were fasted for 16 h, and blood was collected from the fundus venous plexus. Before taking blood, the capillary was moistened with heparin, 0.5 ml of blood was collected from the fundus venous plexus, centrifuged at 3500 r/min for 10 min, and plasma was separated for testing. The supernatant was sucked, and the insulin was measured by using the ELISA method. […]
The measurement of the insulin resistance: after the concentrations of fasting blood sugar and insulin have been measured, the insulin resistance was calculated by using the formula: insulin resistance=fasting blood sugar*fasting insulin/22.5 (it is recently reported that when it is>2.6, it is determined that insulin resistance exists).
On the technique in general: ELISA stands for enzyme-linked immunosorbent assay.

Assay [5] concerns diabetes mouse. In words: sugar tolerance of diabetes mouse (glucose 2 g/kg by gavage). Type of assay: in vivo, Kunming mice. The settings on record: 200 mg/kg; for Blood sugar value 0 h: 0 h after glucose; for Blood sugar value 0.5 h: 0.5 h after glucose; for Blood sugar value 2 h: 2 h after glucose. The protocol: as §1
(§2) After the model was made and gavage was given for 30 and 45 days, the mice were fasted for 16 hours, and the mice were weighed. After weighing, blood was collected at the tail tip, and the fasting blood sugar was measured by using a blood-sugar meter. After the value of fasting blood sugar was measured, the […] were administered by intragastric administration once. After 2 h, mice in each group were given a glucose solution by gavage at 2 g/kg, and blood was collected at the tip of the tail. The blood sugar values at 0, 0.5 and 2 h were measured after the administration of glucose (Bg0, Bg0.5 and Bg2), and the area (AUC) (reaction sugar tolerance) under the blood sugar curve was calculated by using the following formula: AUC=0.25*(Bg0+4*Bg0.5+3*Bg2); and […]

Assay [6] has as its system diabetes mouse. In words: fasting blood sugar of alloxan diabetes mice. It is filed as in vivo, Kunming mice. Particulars: 200 mg/kg. As for the experimental part:
as §1, §2

Assay [7] can be described thus: body weight of alloxan diabetes mice. It is filed as in vivo, Kunming mice. The settings on record: 200 mg/kg, gavage. The protocol: as §1, §2
Assay [8] has as its system INS-1 cell. Put plainly: protection of INS-1 islet cell against alloxan damage (MTT). It is filed as cell-based, Rat. Particulars: 0.5 mM; 24 mmol/L alloxan damage, 24 h. The protocol: the INS-1 cell was the adherent cell, the INS-1 cell in the logarithmic growth phase was used, digested by using trypsin, beated by using a complete medium, and prepared into a single-cell suspension. The cell concentration was adjusted to be 1*10^5/ml, and the cell was inoculated into the 96-well culture plate with 100 μl per well, cultured in the incubator at 5% CO2 and 37° C. for 24 h. The cells were grouped according to the demands of the experiment, the cell of the administration groups were administered with 24 mmol/L of alloxan damage, simultaneously were administered with the drug to be tested Carrimycin with different concentrations (0.2, 0.4 and 0.8 mM), 4 complex wells for each of the concentrations were provided, and all groups were continued to be cultured at 37° C. for 24 h. Additionally a normal control group (no medication administered), a model group (merely administered with alloxan damage) and a positive control group (based on the alloxan treatment, 0.5 mmol/L of metformin was added) were provided. […] And the optical density of all groups were measured by using a microplate reader at 492 nm.
The survival rate of the INS-1 cell treated by the drug is calculated by using the following formula: Survival rate of INS cell (%)=A492 (administration group)/A492 (normal control group)×100%

Consider `Oc1ccc(C=Cc2cc(O)cc(O)c2)cc1` [Resveratrol, resveratrol], for which the escape latent periods result in assay [1] (2nd day, trend maintained on 3rd and 4th days, compared with the model group, FIG. 7) was “significantly decreased”. The swimming speeds entry in assay [1] (between groups, FIG. 9) is “did not have a significant difference”. Besides, the “time quantities of passing through of the platform” value in assay [1] (compared with the model group, FIG. 8) is reported as “significantly increased”. Besides, in assay [2], the “Discrimination index on A1 and A2 (%)” value came out at 52.87 ± 5.43%; the “discrimination indexes on the new objects” value is recorded as “significantly increased”; the “preferential indexes on the new objects” value was “significantly increased”. Moreover, the “total time quantities of entering the arms” value in assay [3] (between groups, FIG. 2) is given as “did not have a significant difference”. Also, the “Y-maze spontaneous alternate reaction rate” value in assay [3] (compared with the model group, FIG. 1) is “significantly increased”.
Turning to `CN(C)C(=N)N=C(N)N` [metformin], in assay [4], the “Insulin resistance (IR)” value was 1.06^**###. Further, in assay [5] (30th day), the “AUC under the blood sugar curve” value is 33.6 ± 2.7^**#, the “Blood sugar value 0 h” value is 14.6 ± 1.4^**, the “Blood sugar value 0.5 h” value is recorded as 19.8 ± 1.8^**## and the “Blood sugar value 2 h” value is reported as 13.5 ± 1.9^**#. Further, in assay [5] (45th day), the “AUC under the blood sugar curve” value is listed as 32.3 ± 2.1^**#, the “Blood sugar value 0 h” value is on record as 14.1 ± 1.5^**, the “Blood sugar value 0.5 h” value is reported as 18.9 ± 1.7^**# and the “Blood sugar value 2 h” value was 13.2 ± 1.7^**#. The “blood sugar, 0 day” value in assay [6] (0 day) is 18.07 ± 1.26^*** mmol/L. Also, the “blood sugar, 30th day” value in assay [6] (30th day, fasted 16 h) is 14.94 ± 1.03^**# mmol/L. Moreover, the “blood sugar, 45th day” value in assay [6] (45th day, fasted 16 h) was 10.24 ± 1.07^*## mmol/L. In assay [7], the “Body weight gain on 30th day” value was found to be 5.94 ± 1.03 g and the “Body weight gain on 45th day” value was 7.26 ± 1.48 g. For the same molecule, the “Survival rate (%)” value in assay [8] worked out at 92.91 ± 6.69 %.
